Reference: patent US5916889A, “1,4-disubstituted piperazines” (Novo Nordisk A/S, priority 1996, dated 1999)

System: histamine induced paw oedema
Assay: Histamine induced paw oedema test (rat)
Format: in vivo, rat (male Sprague-Dawley)
Conditions: 1.0 mg/kg, intraperitoneally 15 minutes before the anaesthetics, paw swelling 20 minutes after histamine (50 microliter, 3 mg/ml)
Method: Compounds of formula I may be used to treat all painful, hyperalgesic and/or inflammatory conditions in which C-fibres play a pathophysiological role by eliciting neurogenic pain or inflammation, i.e.:
I. Histamine induced paw oedema
The rat histamine paw oedema test was performed essentially as described by Amann et al. (Europ. J. Pharmacol. 279, 227-231, 1995). In brief 250-300 g male Sprague-Dawley rats were anaesthetized with pentobarbital sodium, and placed on a 32 degree (Celsius) heated table. Ten minutes later histamine (50 micoliter, 3 mg/ml) was injected in the right hind paw and 20 minutes hereafter the paw swelling was determined by water plethysmography (Ugo Basile). Test compounds were administered intraperitoneally at 15 minutes before the anaesthetics.
Values for inhibition of histamine induced oedema response for some representative compounds are recorded in table 1.

Structure (SMILES) | % Oedema inhibition
Cl.Cl.O=C(O)c1cccnc1N1CCN(CCC=C2c3cc(Cl)ccc3OCOc3ccc(Cl)cc32)CC1 [Example 2, 2-(4-(3-(2,10-Dichloro-12H-dibenzo[d,g][1,3]dioxocin-12-ylidene)-1-propyl)-piperazin-1-yl)-3-pyridinecarboxylic acid dihydrochloride] | 24%
Cl.O=C(O)c1cccc(N2CCN(CCCN3c4ccccc4CCc4ccccc43)CC2)n1 [Example 8, 6-(4-(3-(10,11-Dihydro-5H-dibenz[b,f]azepin-5-yl)-1-propyl)-1-piperazinyl)-2-pyridinecarboxylic acid hydrochloride] | 61%
